Laboratory results from patent publication US20080166403A1, “Long circulating liposome” (Industrial Technology Research Institute, priority 2003, published 2008).

Assay: Circulation time of liposomes in the body: Doxorubicin concentration in rat blood by a pharmacokinetics method with HPLC analysis
Assay type: in vivo
Settings: 8 hours after injection, FIG. 1
Method: In this example, the concentration of Doxorubicin in the blood is determined by a pharmacokinetics method, and HPLC analysis is performed subsequently.
Doxo. is compared with DO503 liposomes (Example 1) and DO502 liposomes (Example 2), wherein Doxo. represents the free doxorubicin solution. […] Especially for DO503, it even exists in rat blood 48 hours after injection.

In the case of `COc1cccc2c1C(=O)c1c(O)c3c(c(O)c1C2=O)C[C@@](O)(C(=O)CO)C[C@@H]3O[C@H]1C[C@H](N)[C@H](O)[C@H](C)O1` [Doxo., doxorubicin], the “Doxorubicin concentration in rat blood” value is reported as “almost no Doxorubicin concentration detected”.
